According to ChEMBL document CHEMBL1201862, “PubChem BioAssay data set” (2004):
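Dose response: 5 concentrations. Exposure: 48 h. Format: 96-well plates. Endpoint: linear interpolation; highest concentration if not reached. Here, GI50 denotes the concentration required for 50% inhibition of growth.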 Calls of active or inactive are those of the source. No stated cut-off is given here; in the data, active = GI50 up to about 1.1 µM and inactive = higher.

Legend:
Experiment in all cases: growth of human tumour cells (NCI), 48 h
786-0 = test system: 786-0
OVCAR-4 = test system: OVCAR-4
RPMI-8226 = test system: RPMI-8226
SNB-75 = test system: SNB-75
HT-29 = test system: HT-29
Hs-578T = test system: Hs-578T
SR = test system: SR
ACHN = test system: ACHN
CCRF-CEM = test system: CCRF-CEM
HL-60 = test system: HL-60
OVCAR-8 = test system: OVCAR-8
MCF7 = test system: MCF7
MDA-MB-231 = test system: MDA-MB-231
A549 = test system: A549
SF-539 = test system: SF-539
CAKI-1 = test system: CAKI-1
HOP-62 = test system: HOP-62
UO-31 = test system: UO-31
DU-145 = test system: DU-145
SK-MEL-5 = test system: SK-MEL-5
MDA-MB-435 = test system: MDA-MB-435
SK-OV-3 = test system: SK-OV-3
SF-295 = test system: SF-295
IGROV-1 = test system: IGROV-1
OVCAR-3 = test system: OVCAR-3
SK-MEL-2 = test system: SK-MEL-2
KM12 = test system: KM12
A498 = test system: A498
TK-10 = test system: TK-10
SN12C = test system: SN12C
HCT-15 = test system: HCT-15
NCI-H23 = test system: NCI-H23
NCI-H460 = test system: NCI-H460
BT-549 = test system: BT-549
MDA-N = test system: MDA-N
K562 = test system: K562
LOX IMVI = test system: LOX IMVI
Malme-3M = test system: Malme-3M
UACC-257 = test system: UACC-257
HCC 2998 = test system: HCC 2998
EKVX = test system: EKVX
SNB-19 = test system: SNB-19
T47D = test system: T47D
OVCAR-5 = test system: OVCAR-5
COLO 205 = test system: COLO 205
SW-620 = test system: SW-620
NCI/ADR-RES = test system: NCI/ADR-RES
U-251 = test system: U-251
RXF 393 = test system: RXF 393
SK-MEL-28 = test system: SK-MEL-28
SF-268 = test system: SF-268
PC-3 = test system: PC-3
NCI-H226 = test system: NCI-H226
UACC-62 = test system: UACC-62
M14 = test system: M14
HCT-116 = test system: HCT-116
MOLT-4 = test system: MOLT-4

Q: Which results are given for `CCOC(=O)c1ccc(C(=O)/C(C(=O)OC(C)(C)C)=C2\CCCN2C)n1C`?
A: GI50 (786-0): > 100 µM (inactive); GI50 (OVCAR-4): 46.6 µM (inactive); GI50 (RPMI-8226): 69.7 µM (inactive); GI50 (SNB-75): 15.9 µM (inactive); GI50 (HT-29): 45.2 µM (inactive); GI50 (Hs-578T): > 100 µM (inactive); GI50 (SR): 31.6 µM (inactive); GI50 (ACHN): 73.5 µM (inactive); GI50 (CCRF-CEM): 72.9 µM (inactive); GI50 (HL-60): 27.4 µM (inactive); GI50 (OVCAR-8): 80.4 µM (inactive); GI50 (MCF7): 55.8 µM (inactive); GI50 (MDA-MB-231): 80 µM (inactive); GI50 (A549): 61.2 µM (inactive); GI50 (SF-539): > 100 µM (inactive); GI50 (CAKI-1): > 100 µM (inactive); GI50 (HOP-62): 95.3 µM (inactive); GI50 (UO-31): 90.4 µM (inactive); GI50 (DU-145): > 100 µM (inactive); GI50 (SK-MEL-5): 21.3 µM (inactive); GI50 (MDA-MB-435): 69.7 µM (inactive); GI50 (SK-OV-3): 16.6 µM (inactive); GI50 (SF-295): 28.7 µM (inactive); GI50 (IGROV-1): > 100 µM (inactive); GI50 (OVCAR-3): 37.8 µM (inactive); GI50 (SK-MEL-2): > 100 µM (inactive); GI50 (KM12): 55.3 µM (inactive); GI50 (A498): 77.1 µM (inactive); GI50 (TK-10): > 100 µM (inactive); GI50 (SN12C): > 100 µM (inactive); GI50 (HCT-15): 95.1 µM; GI50 (NCI-H23): 73.3 µM (inactive); GI50 (NCI-H460): 94.6 µM (inactive); GI50 (BT-549): 39.7 µM (inactive); GI50 (MDA-N): 58.3 µM (inactive); GI50 (K562): 42.1 µM (inactive); GI50 (LOX IMVI): 87.3 µM (inactive); GI50 (Malme-3M): > 100 µM (inactive); GI50 (UACC-257): 54 µM (inactive); GI50 (HCC 2998): > 100 µM (inactive); GI50 (EKVX): 33.4 µM (inactive); GI50 (SNB-19): > 100 µM (inactive); GI50 (T47D): 29.2 µM (inactive); GI50 (OVCAR-5): > 100 µM (inactive); GI50 (COLO 205): 96.8 µM (inactive); GI50 (SW-620): > 100 µM (inactive); GI50 (NCI/ADR-RES): 34.6 µM (inactive); GI50 (U-251): > 100 µM (inactive); GI50 (RXF 393): > 100 µM (inactive); GI50 (SK-MEL-28): > 100 µM (inactive); GI50 (SF-268): > 100 µM (inactive); GI50 (PC-3): 73.1 µM (inactive); GI50 (NCI-H226): > 100 µM (inactive); GI50 (UACC-62): 44.2 µM (inactive); GI50 (M14): 57.8 µM (inactive); GI50 (HCT-116): 48.5 µM (inactive); GI50 (MOLT-4): 33.8 µM (inactive)
